The target in one series is PI3Kγ (Homo sapiens, UniProt P48736). The experiment in a line: ADP-Glo luminescent assay, enzymatic activity of PI3K gamma. It counts as biochemical. The settings on record: ATP 25 μM; read-out: PI3K gamma (nM) inhibitory activity (IC50). Background: ADP-Glo turns the ADP formed in a reaction into a luminescent signal.
In another series the target is T1, PI3K gamma (Mus musculus, UniProt Q9JHG7).
T1 construct: endogenous in cells; host or cells: RAW264.7
The experiment in a line: Raw264.7 cell assay: phosphorylation of AKT in C5a stimulated RAW264.7 cells (AlphaLISA). The settings on record: pAKT, read-out: PI3K gamma Raw264.7 cell (nM) cellular activity (IC50). The format is cell-based. In short, it runs like this:
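Passage-15 RAW264.7 cells were plated and rested 2 h at 37 °C, then given compound for 30 min at 37 °C before C5a stimulation. Lysates went to phospho-AKT AlphaLISA with a 2 h dark incubation at 25 °C. IC50 came from a four-parameter logistic fit of inhibition against log concentration.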

A short description of the next series: Pharmacokinetics in dogs. It counts as in vivo. The conditions noted are these: IV bolus at 1 mg/kg and PO at 5 mg/kg; for bioavailability / clearance / half-life: male, dog, plasma; for bioavailability: beagle, oral, 5 mg/kg, read-out: F (%) oral bioavailability. The method, then:
Dosing solutions were prepared at 1 mg/mL in 5% DMSO/40% PEG400/55% water. A dosing solution was administered to male beagle dogs (Approximately 9-14 kg, 3 dogs each group) via intravenous (IV) bolus at 1 mg/kg and by oral gavage (PO) at 5 mg/kg. The dosing volume was 1 mL/kg for IV administration and 5 mL/kg for oral gavage. Blood samples (˜0.3 mL each time point) were collected into tubes containing potassium ethylenediaminetetraacetic acid (K2EDTA) as the anticoagulant at 0.033, 0.083, 0.25, 0.5, 1, 2, 4, 8 and 24 hours post dose for IV administration and 0.083, 0.25, 0.5, 1, 2, 4, 8 and 24 hours post dose for PO administration. The blood samples were then centrifuged for 5 minutes in a centrifuge refrigerated at 4° C. The resultant plasma samples were analyzed using LC/MS/MS to determine concentrations of a test compound. Non-compartmental model with WinNonlin (Phoenix™, version 6.1) software was used to calculate pharmacokinetic (PK) parameters.

Series [1] can be described thus: Pharmacokinetics in mice (plasma and brain concentrations). It counts as in vivo, CD-1 mice. The conditions noted are these: male CD1 mouse, oral gavage 20 mg/kg. How it is done: The dosing solution was administered to male CD-1 mice via oral gavage (PO) at 20 mg/kg. Blood and brain tissue samples were collected at 0.5, 2 and 8 hours post-dose. The blood samples were then centrifuged for 5 minutes in a centrifuge refrigerated at 4° C. The brain samples after blood removal were homogenized in water.

For the next series, the system named is 4T1 cells. The experiment in a line: Anti-tumor efficacy in 4T1 syngeneic mouse tumor model. The format is in vivo. The settings on record: 4T1 in BALB/c mice, oral gavage 100 mg/kg, FIG. 1. The method, then: BALB/c mice were inoculated subcutaneously at the fourth mammary pad with 4T1 cells for tumor development. On the next day after tumor cell inoculation, the mice were assigned into 2 groups using stratified randomization with 10 mice in each group based upon their body weight and inoculation order. […] The tumor sizes were measured three times per week during the treatment. Tumor volume was calculated by the formula: length×width^2/2.

The test system of another series is MOG35-55 induced EAE. The experiment in a line: Efficacy on MOG35-55 induced EAE. The conditions noted are these: 20 mg/kg and 80 mg/kg BID PO, 14 days from day 10, FIG. 2. It counts as in vivo, C57BL/6 mice.

Read-outs that look alike come from different tables or passages of the source.

T1 sequence (Q9JHG7 whole entry): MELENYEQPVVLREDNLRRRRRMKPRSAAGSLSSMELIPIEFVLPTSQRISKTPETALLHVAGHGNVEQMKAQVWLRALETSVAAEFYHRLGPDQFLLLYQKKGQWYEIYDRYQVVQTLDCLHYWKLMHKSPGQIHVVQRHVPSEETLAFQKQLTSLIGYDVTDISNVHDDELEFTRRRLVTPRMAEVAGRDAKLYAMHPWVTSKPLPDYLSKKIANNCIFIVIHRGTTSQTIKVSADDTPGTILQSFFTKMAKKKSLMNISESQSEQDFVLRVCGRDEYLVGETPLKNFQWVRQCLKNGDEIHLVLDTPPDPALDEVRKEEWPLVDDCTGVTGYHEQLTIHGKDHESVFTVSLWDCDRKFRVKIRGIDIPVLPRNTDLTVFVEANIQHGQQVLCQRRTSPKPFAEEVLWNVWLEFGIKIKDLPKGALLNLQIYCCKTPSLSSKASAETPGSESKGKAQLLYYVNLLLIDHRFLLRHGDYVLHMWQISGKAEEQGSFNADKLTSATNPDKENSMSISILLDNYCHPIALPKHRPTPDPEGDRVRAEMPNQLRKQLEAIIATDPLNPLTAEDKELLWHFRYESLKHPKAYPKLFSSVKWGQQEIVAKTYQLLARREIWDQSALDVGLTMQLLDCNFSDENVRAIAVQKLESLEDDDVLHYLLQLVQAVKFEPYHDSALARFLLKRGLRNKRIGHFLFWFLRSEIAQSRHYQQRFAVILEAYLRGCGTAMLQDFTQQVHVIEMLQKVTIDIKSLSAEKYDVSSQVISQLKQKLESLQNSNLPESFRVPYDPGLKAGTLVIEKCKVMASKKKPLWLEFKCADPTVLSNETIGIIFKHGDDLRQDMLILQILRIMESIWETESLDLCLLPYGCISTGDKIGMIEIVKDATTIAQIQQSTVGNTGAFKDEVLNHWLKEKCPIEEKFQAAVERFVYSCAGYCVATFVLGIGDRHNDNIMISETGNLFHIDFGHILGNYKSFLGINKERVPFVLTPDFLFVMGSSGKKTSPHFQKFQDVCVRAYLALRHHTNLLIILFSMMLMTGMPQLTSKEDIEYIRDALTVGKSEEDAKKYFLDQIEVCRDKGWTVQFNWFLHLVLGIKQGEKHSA
T1 sequence (Q5SW28 whole entry partner): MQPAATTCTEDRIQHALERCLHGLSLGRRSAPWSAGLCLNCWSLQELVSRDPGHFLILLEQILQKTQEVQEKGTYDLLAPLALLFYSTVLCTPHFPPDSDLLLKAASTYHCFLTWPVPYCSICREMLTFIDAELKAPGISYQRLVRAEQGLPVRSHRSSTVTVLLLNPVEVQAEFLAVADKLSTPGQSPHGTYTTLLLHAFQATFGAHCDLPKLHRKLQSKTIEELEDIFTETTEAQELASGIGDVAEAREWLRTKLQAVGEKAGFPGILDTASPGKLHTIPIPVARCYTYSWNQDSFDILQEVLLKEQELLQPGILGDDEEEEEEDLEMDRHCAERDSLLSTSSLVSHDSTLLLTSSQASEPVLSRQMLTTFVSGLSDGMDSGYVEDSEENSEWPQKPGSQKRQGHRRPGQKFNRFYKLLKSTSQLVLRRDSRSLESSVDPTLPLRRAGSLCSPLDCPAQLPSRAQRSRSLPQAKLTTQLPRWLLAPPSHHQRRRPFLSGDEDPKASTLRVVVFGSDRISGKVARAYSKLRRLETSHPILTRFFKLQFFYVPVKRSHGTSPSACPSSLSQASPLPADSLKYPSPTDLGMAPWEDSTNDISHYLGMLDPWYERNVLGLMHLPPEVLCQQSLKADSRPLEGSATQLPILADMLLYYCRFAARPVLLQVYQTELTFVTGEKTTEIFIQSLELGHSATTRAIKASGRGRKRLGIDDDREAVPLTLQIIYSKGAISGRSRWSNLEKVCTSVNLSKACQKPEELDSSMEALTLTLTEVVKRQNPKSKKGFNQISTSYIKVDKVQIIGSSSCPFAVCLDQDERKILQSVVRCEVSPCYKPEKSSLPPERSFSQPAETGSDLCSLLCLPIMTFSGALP
Sequence of PI3Kγ (P48736 whole entry, species assumed): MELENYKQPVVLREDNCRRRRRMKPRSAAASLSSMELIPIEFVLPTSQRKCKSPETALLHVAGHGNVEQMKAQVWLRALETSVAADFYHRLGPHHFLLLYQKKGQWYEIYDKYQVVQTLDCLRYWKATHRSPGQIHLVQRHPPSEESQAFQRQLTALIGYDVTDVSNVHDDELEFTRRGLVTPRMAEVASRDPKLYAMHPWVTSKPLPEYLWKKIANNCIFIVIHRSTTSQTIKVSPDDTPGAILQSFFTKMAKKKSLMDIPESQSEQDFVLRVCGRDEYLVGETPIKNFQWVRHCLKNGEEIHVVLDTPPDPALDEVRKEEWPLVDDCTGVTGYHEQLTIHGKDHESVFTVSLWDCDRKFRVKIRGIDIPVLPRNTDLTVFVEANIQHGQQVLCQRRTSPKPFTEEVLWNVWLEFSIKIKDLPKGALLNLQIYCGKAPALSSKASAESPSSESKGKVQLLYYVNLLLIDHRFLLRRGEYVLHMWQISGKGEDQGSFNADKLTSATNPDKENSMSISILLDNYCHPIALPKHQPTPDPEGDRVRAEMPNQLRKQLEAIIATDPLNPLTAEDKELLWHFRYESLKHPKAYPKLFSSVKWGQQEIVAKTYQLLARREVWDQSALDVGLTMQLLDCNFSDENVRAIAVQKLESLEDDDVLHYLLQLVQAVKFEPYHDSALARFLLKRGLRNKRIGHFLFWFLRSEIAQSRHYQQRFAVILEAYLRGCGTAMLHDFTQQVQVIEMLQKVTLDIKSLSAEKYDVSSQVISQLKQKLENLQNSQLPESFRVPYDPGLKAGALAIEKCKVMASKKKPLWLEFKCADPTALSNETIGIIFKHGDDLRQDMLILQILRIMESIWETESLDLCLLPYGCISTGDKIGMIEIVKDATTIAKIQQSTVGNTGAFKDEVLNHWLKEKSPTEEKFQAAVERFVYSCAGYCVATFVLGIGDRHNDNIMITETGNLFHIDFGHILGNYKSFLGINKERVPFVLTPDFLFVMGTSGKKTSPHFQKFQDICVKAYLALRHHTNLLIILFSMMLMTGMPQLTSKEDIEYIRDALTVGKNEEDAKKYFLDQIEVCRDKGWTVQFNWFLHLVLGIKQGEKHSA

The IC50 is the point on the concentration scale where inhibition reaches its midpoint. Usually half-life stands for the time in which the quantity being followed falls by half. High values mean slow loss, low ones fast loss. As for `CC(=O)Nc1nc(C)c(-c2cc3c(c(NS(C)(=O)=O)n2)C(=O)N([C@@H](C)C2CC2)C3)s1` [Compound 20, (S)-N-(5-(2-(1-cyclopropylethyl)-4-(methylsulfonamido)-3-oxo-2,3-dihydro-1H-pyrrolo[3,4-c]pyridin-6-yl)-4-methylthiazol-2-yl)acetamide], the 50% inhibitory concentration (IC50) at PI3Kγ came out at 1.3 nM. At PI3K gamma, the IC50 is 4.3 nM. Besides, in “Pharmacokinetics in dogs” (beagle dogs), the “F (%) oral bioavailability” value stood at 108%, the “Vssobs” value is listed as 2.1 L/kg, the clearance was 6.1 mL/min/kg and the half-life was 7.2 h. In “Pharmacokinetics in dogs”, the bioavailability was determined as 107%.
As to `CC(=O)Nc1nc(C)c(-c2cc3c(c(N4CCOCC4)n2)C(=O)N([C@@H](C)C2CC2)C3)s1` [Compound 34, (S)-N-(5-(2-(1-cyclopropylethyl)-4-morpholino-3-oxo-2,3-dihydro-M-pyrrolo[3,4-c]pyridin-6-yl)-4-methylthiazol-2-yl)acetamide], the IC50 on PI3K gamma amounted to 1.6 nM. Further, in “Pharmacokinetics in dogs” (beagle dogs), the “Vssobs” value was 2.7 L/kg, the clearance was found to be 4.5 mL/min/kg and the half-life was 9.1 h. In addition, the bioavailability in the series “Pharmacokinetics in dogs” was over 68%. Further, in series [1] (CD-1, brain, read-out: Brain), the concentration at 0.5 h worked out at 2490 ng/g, the concentration at 2 h was 473 ng/g and the concentration at 8 h came out at 454 ng/g. For the same compound, in series [1] (CD-1, plasma, read-out: Plasma), the concentration at 0.5 h is 2800 ng/mL, the concentration at 2 h was determined as 1200 ng/mL and the concentration at 8 h worked out at 1370 ng/mL. Also, the “tumor growth (tumor volume)” value in the series with 4T1 cells is recorded as “significantly suppressed tumor growth”. Also, the “clinical disability symptom (EAE clinical score)” value in the series on MOG35-55 induced EAE was “significantly ameliorated the clinical disability symptom”.

(Values after patent US11542262B2, “Phosphatidylinositol 3-kinase inhibitors” (NANJING ZHENGXIANG PHARMACEUTICALS CO., LTD., priority 2019, dated 2023).)
